Assay results from PubChem BioAssay AID248 (DTP/NCI, 2004).
“And” between values parts separate entries of the source, which are not always exact repeats. Equal entries are not always repeated. Toxic doses and inconclusive results are not listed. No stated cut-off is given here; in the data, active means T/C of 150% or more; inactive means T/C below 125%.

System: L1210 leukemia ip in BDF1 mice, survival T/C
Assay: NCI In Vivo Anticancer Drug Screen. Data for tumor model L1210 Leukemia (intraperitoneal) in B6D2F1 (BDF1) mice
Settings: endpoint: mean survival time, higher = longer survival
Outline: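 Tumor cells were implanted, animals were treated, and survival was followed. The result divides the treated measurement by the vehicle-control measurement.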

[1] = dose: 100.0 mg/kg/injection, schedule: Q01DX009 (ip), vehicle: Klucel (hydroxypropylcellulose) (HPC)
[2] = dose: 100.0 mg/kg/injection, schedule: Q04DX003 (ip), vehicle: Klucel (hydroxypropylcellulose) (HPC)
[3] = dose: 100.0 mg/kg/injection, schedule: Q01DX001 (ip), vehicle: saline with Tween-80
[4] = dose: 100.0 mg/kg/injection, schedule: Q01DX009 (ip), vehicle: saline with Tween-80
[5] = dose: 200.0 mg/kg/injection, schedule: Q01DX001 (ip), vehicle: saline with Tween-80
[6] = dose: 400.0 mg/kg/injection, schedule: Q01DX001 (ip), vehicle: saline with Tween-80
[7] = dose: 400.0 mg/kg/injection, schedule: Q01DX009 (ip), vehicle: saline with Tween-80
[8] = dose: 100.0 mg/kg/injection, schedule: Q04DX003 (ip), vehicle: saline with Tween-80
[9] = dose: 200.0 mg/kg/injection, schedule: Q04DX003 (ip), vehicle: saline with Tween-80
[10] = dose: 400.0 mg/kg/injection, schedule: Q04DX003 (ip), vehicle: saline with Tween-80
[11] = dose: 200.0 mg/kg/injection, schedule: Q04DX003 (ip), vehicle: Klucel (hydroxypropylcellulose) (HPC)
[12] = dose: 100.0 mg/kg/injection, schedule: Q01DX001 (ip), vehicle: carboxymethylcellulose (CMC)
[13] = dose: 200.0 mg/kg/injection, schedule: Q01DX001 (ip), vehicle: carboxymethylcellulose (CMC)
[14] = dose: 400.0 mg/kg/injection, schedule: Q01DX001 (ip), vehicle: carboxymethylcellulose (CMC)
[15] = dose: 400.0 mg/kg/injection, schedule: Q04DX003 (ip), vehicle: Klucel (hydroxypropylcellulose) (HPC)
[16] = dose: 200.0 mg/kg/injection, schedule: Q01DX009 (ip), vehicle: Klucel (hydroxypropylcellulose) (HPC)
[17] = dose: 400.0 mg/kg/injection, schedule: Q01DX009 (ip), vehicle: Klucel (hydroxypropylcellulose) (HPC)
[18] = dose: 100.0 mg/kg/injection, schedule: Q01DX001 (ip), vehicle: saline
[19] = dose: 200.0 mg/kg/injection, schedule: Q01DX001 (ip), vehicle: saline

Measured: T/C

C[C@@H]1C[C@H]2[C@@H]3CCC4=CC(=O)C=C[C@]4(C)[C@@]3(F)[C@@H](O)C[C@]2(C)[C@@]1(O)C(=O)CO
inactive: dose: 3.12 mg/kg/injection, schedule: Q01DX009 (ip), vehicle: Klucel (hydroxypropylcellulose) (HPC) 102 % of control | dose: 6.25 mg/kg/injection, schedule: Q01DX009 (ip), vehicle: Klucel (hydroxypropylcellulose) (HPC) 95 % of control | dose: 10.0 mg/kg/injection, schedule: Q01DX Z (sc), vehicle: steriod suspending solution 112 % of control | dose: 12.5 mg/kg/injection, schedule: Q01DX009 (ip), vehicle: Klucel (hydroxypropylcellulose) (HPC) 98 % of control | dose: 12.5 mg/kg/injection, schedule: Q01DX009 (ip), vehicle: saline 111 % of control | dose: 25.0 mg/kg/injection, schedule: Q01DX009 (ip), vehicle: Klucel (hydroxypropylcellulose) (HPC) 96 % of control | dose: 25.0 mg/kg/injection, schedule: Q01DX009 (ip), vehicle: saline sonified 99 % of control | dose: 25.0 mg/kg/injection, schedule: Q01DX009 (ip), vehicle: saline 96 % of control | dose: 25.0 mg/kg/injection, schedule: Q01DX Z (sc), vehicle: steriod suspending solution 112 % of control | dose: 37.5 mg/kg/injection, schedule: Q04DX003 (ip), vehicle: saline with Tween-80 93 % of control | dose: 50.0 mg/kg/injection, schedule: Q01DX009 (ip), vehicle: Klucel (hydroxypropylcellulose) (HPC) 91 % of control | dose: 50.0 mg/kg/injection, schedule: Q01DX009 (ip), vehicle: saline sonified 99 % of control | dose: 50.0 mg/kg/injection, schedule: Q01DX009 (ip), vehicle: saline 107 % of control | dose: 50.0 mg/kg/injection, schedule: Q01DX Z (sc), vehicle: steriod suspending solution 110 % of control | dose: 75.0 mg/kg/injection, schedule: Q04DX003 (ip), vehicle: saline with Tween-80 95 % of control | [1] 91 % of control | dose: 100.0 mg/kg/injection, schedule: Q01DX009 (ip), vehicle: saline sonified 106 % of control | [2] 102 % of control

Cc1ccccc1N=Nc1c(O)n(-c2ccccc2Cl)c(=S)n(-c2ccccc2)c1=O
inactive: dose: 50.0 mg/kg/injection, schedule: Q01DX001 (ip), vehicle: Klucel (hydroxypropylcellulose) (HPC) 98 % of control | dose: 100.0 mg/kg/injection, schedule: Q01DX001 (ip), vehicle: Klucel (hydroxypropylcellulose) (HPC) 100 % of control | dose: 200.0 mg/kg/injection, schedule: Q01DX001 (ip), vehicle: Klucel (hydroxypropylcellulose) (HPC) 96 % of control

S=C(N/N=C/C(c1ccccc1)c1ccccc1)Nc1ccccc1
inactive: [3] 95 % of control | [4] 86 % of control | [5] 102 % of control | [6] 98 % of control | [7] 86 % of control

CCC(CC)OC(=O)c1cc([N+](=O)[O-])cc([N+](=O)[O-])c1
inactive: [8] 91 % of control | [9] 87 % of control | [10] 94 % of control

O=C(Nc1ccccc1)Nc1cc(C(F)(F)F)ccc1Cl
inactive: [4] 86 % of control | [8] 91 % of control | [9] 90 % of control | [7] 92 % of control | [10] 95 % of control

COc1ncnc(Cl)c1[N+](=O)[O-]
inactive: dose: 50.0 mg/kg/injection, schedule: Q04DX003 (ip), vehicle: Klucel (hydroxypropylcellulose) (HPC) 92 % of control | [2] 92 % of control and 86 % of control | [11] 97 % of control and 91 % of control

CCOC(=O)NC(NC(=O)OCC)C(NC(=O)OCC)NC(=O)OCC
inactive: [12] 87 % of control | [13] 91 % of control | [14] 91 % of control

CCCCNc1nc(N)nc(N)c1[N+](=O)[O-]
inactive: [2] 103 % of control | [11] 98 % of control | [15] 101 % of control

O=C1CCC[C@@H]2[C@H]3CCCN4CCC[C@@H](CN12)[C@@H]34
inactive: dose: 75.0 mg/kg/injection, schedule: Q01DX001 (ip), vehicle: saline 105 % of control | dose: 150.0 mg/kg/injection, schedule: Q01DX001 (ip), vehicle: saline 96 % of control

Clc1nc2ncn3ncnc3c2[nH]1
inactive: [3] 104 % of control | [5] 101 % of control | [6] 92 % of control

CCCOC(=O)COc1ccc(Cl)cc1
inactive: [1] 97 % of control | [16] 95 % of control | [17] 104 % of control

CCOC(=O)c1ccc(NC(=O)Oc2ccccc2OCC)cc1
inactive: [1] 97 % of control | [16] 95 % of control | [17] 90 % of control

[N-]=[N+]=Nc1cccc[n+]1[O-]
inactive: [2] 105 % of control | [11] 109 % of control | [15] 105 % of control

O=C1OC(=O)C(Cl)=C1Cl
inactive: dose: 25.0 mg/kg/injection, schedule: Q04DX002 (ip), vehicle: saline with Tween-80 97 % of control | dose: 50.0 mg/kg/injection, schedule: Q04DX002 (ip), vehicle: saline with Tween-80 93 % of control | dose: 100.0 mg/kg/injection, schedule: Q04DX002 (ip), vehicle: saline with Tween-80 104 % of control and 112 % of control

N#CC1CN2c3ccc4ccccc4c3CCC2C1=O (stereo unspecified)
inactive: dose: 50.0 mg/kg/injection, schedule: Q01DX001 (ip), vehicle: saline 106 % of control | [18] 104 % of control | [19] 104 % of control

CC(=O)OCc1c[n+]([O-])c(C)c(OC(C)=O)c1COC(C)=O
inactive: dose: 25.0 mg/kg/injection, schedule: Q04DX003 (ip), vehicle: saline 101 % of control | dose: 50.0 mg/kg/injection, schedule: Q04DX003 (ip), vehicle: saline 101 % of control

CCOc1cc(/C=N/NC(=S)NC23CC4CC(CC(C4)C2)C3)ccc1O
inactive: dose: 75.0 mg/kg/injection, schedule: Q01DX001 (ip), vehicle: acetone 101 % of control | dose: 150.0 mg/kg/injection, schedule: Q01DX001 (ip), vehicle: acetone 92 % of control | dose: 300.0 mg/kg/injection, schedule: Q01DX001 (ip), vehicle: acetone 94 % of control

N/N=C(/C(=O)c1ccccc1)c1ccccc1
inactive: [18] 102 % of control | [8] 100 % of control | [19] 96 % of control | [9] 95 % of control | dose: 400.0 mg/kg/injection, schedule: Q01DX001 (ip), vehicle: saline 96 % of control | [10] 100 % of control

CCCCO[Si](C)(C)CCl
inactive: dose: 50.0 mg/kg/injection, schedule: Q01DX001 (ip), vehicle: carboxymethylcellulose (CMC) 101 % of control | [12] 101 % of control | [13] 106 % of control | [14] 97 % of control

CCCCn1nnc2c(NN)nc(N)nc21
inactive: dose: 25.0 mg/kg/injection, schedule: Q01DX009 (ip), vehicle: saline with Tween-80 102 % of control | dose: 25.0 mg/kg/injection, schedule: Q04DX003 (ip), vehicle: saline with Tween-80 100 % of control | dose: 50.0 mg/kg/injection, schedule: Q01DX009 (ip), vehicle: saline with Tween-80 101 % of control | dose: 50.0 mg/kg/injection, schedule: Q04DX003 (ip), vehicle: saline with Tween-80 94 % of control | [8] 100 % of control

COc1ccc(OC)c(-c2nnc(Nc3ccc(S(=O)(=O)N4CCCCC4)cc3)s2)c1
inactive: [1] 94 % of control | [16] 91 % of control | [17] 91 % of control
